According to patent publication US9198420B2, “Rodenticidal norbormide analogues” (priority 2012, dated 2015):
Read-outs that look alike come from different tables or passages of the source.

How the values were obtained:
[1] = Rat serum assay (release of NRB or NRB analogue); assay type: in vitro ADME; details: 80% rat serum, 37° C., 3 h, n = 3
Method: The hydrolytic stability of compounds of the invention in rat blood was evaluated using in vitro rat serum obtained from Sigma-Aldrich and stored at −78° C. Similar assay conditions to those reported by Li Di and co-workers (Int. J. Pharm. 2005, 297, 110-119) were followed [200 μL total volume, 80% rat serum (diluting with phosphate buffer (0.1 M, pH 7.4)), at a final compound concentration of 200 μM, 2.5% DMSO overall, 37° C., 3 h, n=3] using an Eppendorf Thermomixer Compact. Reactions were quenched by transferring 150 μL of the incubation mixture to 450 μL of ice-cold acetonitrile, affording a final compound/NRB or NRB analogue concentration of 50 μM. Samples were centrifuged at 14,500×g for 15 min using an Eppendorf Mini Spin Plus centrifuge, at ambient temperature. 400 μL of the supernatant was removed and transferred to clean tubes. Analysis was by RP-LCMS at an injection volume of 20 μL. Each compound and corresponding NRB or NRB analogue were subjected to external calibration curves at 50 μM, 100 μM and 200 μM to allow conversion of absorbance unit area into nmol, from which the percentage of NRB or NRB analogue released from each compound was calculated.

[2] = Simulated gastric fluid (SGF) hydrolytic stability assay; assay type: physicochemical; details: simulated gastric fluid without pepsin, pH 1.2, 37° C., 1 h, n = 3
Method: All in vivo candidates were subjected to a 1 h hydrolytic stability appraisal in the presence of SGF, without pepsin (United States Pharmacopoeia 24) [200 μL total volume, sodium chloride solution (0.03 M) acidified to pH 1.2 with concentrated hydrochloric acid, at a final compound concentration of 200 μM, 2.5% DMSO overall, 37° C., n=3], to investigate any potential chemical instabilities that may occur in the acidic environment of the stomach prior to uptake. Analysis was by RP-LCMS at an injection volume of 5 μL.

rat caudal artery = assay: Rat caudal artery ring contractile force (vasoconstrictory activity); design: species or system rat (male Wistar)
Method: Male Wistar rats (150-250 g) were obtained from Charles River Italia (Milano, Italy) and killed by decapitation. Ventral caudal artery was isolated, placed in Tyrode solution at room temperature and cleaned of extraneous fatty and connective tissue under a dissection microscope. All vessels were cut into rings 2 mm long, mounted on a custom-built plexiglass support by means of two intraluminal tungsten wires and placed in 20 mL double-jacketed organ baths filled with Tyrode solution of the following composition (mM): NaCl 125, KCl 5, CaCl2 2.7, MgSO4 1, KH2PO4 1.2, NaHCO3 25 and glucose 11, maintained at 37° C., pH 7.35, bubbled with 95% O2 and […]. The endothelium was removed by gently rubbing the lumen of the rings with a very thin rough-surfaced tungsten wire (caudal artery). The mechanical activity of the rings was detected by means of an isometric force transducer (Ugo Basile, Comerio, Italy) coupled to a pen recorder (Ugo Basile, Comerio, Italy). Rings were passively stretched to impose a resting tension (2 g) and were allowed to equilibrate for 60 min. After equilibration, each ring was repeatedly simulated with both KCl (90 mM) and phenylephrine (10 μM) until reproducible responses were obtained. To verify the absence of the endothelium, rings contracted with 1 μM phenylephrine were exposed to […] carbamylcholine. […] Each compound was tested for the vasoconstrictor activity at a concentration of 50 μM, which has been previously reported to be the one evoking the maximal response to norbormide. The contractile responses to the compounds were expressed as percent of the 90 mM KCl response.

Sprague Dawley rats = assay: In vivo lethality, oral gavage; design: species or system rat (Sprague Dawley); details: rat, n = 2
Method: Sprague Dawley rats (150-200 g) were used to appraise the rodenticidal activity of the compounds put forward for in vivo evaluation. Briefly, prior to administration the compounds were dissolved in 0.2 M hydrochloric acid (5% DMSO overall), to the desired dose, and without delay either injected intravenously, via the tail, or orally gavaged. All treated animals were housed in a quiet room and monitored every minute (i.v) or every 15 min (oral) to verify early signs of toxicity.

[3] = Table 5, compounds of formula (III)
[4] = Table 1, read-out: Vasoconstriction: maximum contractile effect as a % of 90 mM KCl contraction

SMILES | % NRB released, Rat Serum [1] [%] | % NRB released, Hydrolytic Stability [2] [%] | Vasoconstriction: maximum contractile effect as a % of 90 mM KCl contraction (rat caudal artery; [3]) [%] | Vasoconstriction: maximum contractile effect as a % of 90 mM KCl contraction (rat caudal artery; n = 3, pre-cleavage, Table 6) [%] | Vasoconstriction: maximum contractile effect as a % of 90 mM KCl contraction (rat caudal artery; Table 4, pre-cleavage, n = 3) [%] | In vivo lethality (oral) (Sprague Dawley rats; 40 mg/Kg) | further results
O=C(CCC(=O)OCN1C(=O)C2C3C=C(C(O)(c4ccccc4)c4ccccn4)C(C3=C(c3ccccc3)c3ccccn3)C2C1=O)OCN1C(=O)C2C3C=C(C(O)(c4ccccc4)c4ccccn4)C(C3=C(c3ccccc3)c3ccccn3)C2C1=O (stereo not drawn) [Compound 21, 5-(α-Hydroxy-α-2-pyridylbenzyl)-7-(α-2-pyridylbenzylidene)-N-succinoyloxymethyl-5-norbornene-2,3-dicarboximide dimer] | 29.6 ± 5.4 | 0 | 0 | 0 |  |  | 
O=C(OCN1C(=O)C2C3C=C(C(O)(c4ccccc4)c4ccccn4)C(C3=C(c3ccccc3)c3ccccn3)C2C1=O)c1ccc(C(=O)OCN2C(=O)C3C4C=C(C(O)(c5ccccc5)c5ccccn5)C(C4=C(c4ccccc4)c4ccccn4)C3C2=O)cc1 (stereo not drawn) [Compound 26, 5-(α-Hydroxy-α-2-pyridylbenzyl)-7-(α-2-pyridylbenzylidene)-N-terephthaloyloxymethyl-5-norbornene-2,3-dicarboximide dimer] | <5 | 0 | 0 | 0 |  |  | 
O=C(CCCCCCCCCCC(=O)OCN1C(=O)C2C3C=C(C(O)(c4ccccc4)c4ccccn4)C(C3=C(c3ccccc3)c3ccccn3)C2C1=O)OCN1C(=O)C2C3C=C(C(O)(c4ccccc4)c4ccccn4)C(C3=C(c3ccccc3)c3ccccn3)C2C1=O (stereo not drawn) [Compound 25, N-Dodecanedioyloxymethyl-5-(α-hydroxy-α-2-pyridylbenzyl)-7-(α-2-pyridylbenzylidene)-5-norbornene-2,3-dicarboximide dimer] | <5 | 0 | 0 | 0 |  |  | 
O=C(CCCCCCC(=O)OCCN1C(=O)C2C3C=C(C(O)(c4ccccc4)c4ccccn4)C(C3=C(c3ccccc3)c3ccccn3)C2C1=O)OCCN1C(=O)C2C3C=C(C(O)(c4ccccc4)c4ccccn4)C(C3=C(c3ccccc3)c3ccccn3)C2C1=O (stereo not drawn) [Compound 140, 5-(α-Hydroxy-α-2-pyridylbenzyl)-7-(α-2-pyridylbenzylidene)-N-2′-suberoyloxyethyl-5-norbornene-2,3-dicarboximide dimer] | 9.9 ± 1.3 | 0 | 0 | 0 |  |  | 
CC(=O)Nc1ccc(C=CC(=O)OCCN2C(=O)C3C4C=C(C(O)(c5ccccc5)c5ccccn5)C(C4=C(c4ccccc4)c4ccccn4)C3C2=O)cc1 (stereo not drawn) [Compound 337, N-[2′-(4″-Acetamidocinnamoyloxy)ethyl]-5-(α-hydroxy-α-2-pyridylbenzyl)-7-(α-2-pyridylbenzylidene)-5-norbornene-2,3-dicarboximide] |  |  |  |  | 97 | yes^h | Emax (rat caudal artery; [4]): 97%
O=C(OCCN1C(=O)C2C3C=C(C(O)(c4ccccc4)c4ccccn4)C(C3=C(c3ccccc3)c3ccccn3)C2C1=O)c1ccc(C(=O)OCCN2C(=O)C3C4C=C(C(O)(c5ccccc5)c5ccccn5)C(C4=C(c4ccccc4)c4ccccn4)C3C2=O)cc1 (stereo not drawn) [Compound 143, 5-(α-Hydroxy-α-2-pyridylbenzyl)-7-(α-2-pyridylbenzylidene)-N-2′-terephthaloyloxyethyl-5-norbornene-2,3-dicarboximide dimer] | 27.5 ± 1.4 | 0 | 0 | 0 |  |  | 
O=C(CCCCC(=O)OCN1C(=O)C2C3C=C(C(O)(c4ccccc4)c4ccccn4)C(C3=C(c3ccccc3)c3ccccn3)C2C1=O)OCN1C(=O)C2C3C=C(C(O)(c4ccccc4)c4ccccn4)C(C3=C(c3ccccc3)c3ccccn3)C2C1=O (stereo not drawn) [Compound 22, N-Adipoyloxymethyl-5-(α-hydroxy-α-2-pyridylbenzyl)-7-(α-2-pyridylbenzylidene)-5-norbornene-2,3-dicarboximide dimer] | 13.4 ± 0.2 | 0 | 0 | 0 |  |  | 
COc1ccc(C=CC(=O)NCCN2C(=O)C3C4C=C(C(O)(c5ccccc5)c5ccccn5)C(C4=C(c4ccccc4)c4ccccn4)C3C2=O)cc1 (stereo not drawn) [Compound 361, 5-(α-Hydroxy-α-2-pyridylbenzyl)-N-[2′-(4″-methoxycinnamamido)ethyl]-7-(α-2-pyridylbenzylidene)-5-norbornene-2,3-dicarboximide] |  |  |  |  | 21 | yes^h,i | Emax (rat caudal artery; Table 2, read-out: Vasoconstriction: maximum contractile effect as a % of 90 mM KCl contraction): 21%; In vivo lethality (oral) (Sprague Dawley rats; 20 mg/Kg): yes^h,i
CS(=O)(=O)c1ccc(C=CC(=O)OCCN2C(=O)C3C4C=C(C(O)(c5ccccc5)c5ccccn5)C(C4=C(c4ccccc4)c4ccccn4)C3C2=O)cc1 (stereo not drawn) [Compound 329, 5-(α-Hydroxy-α-2-pyridylbenzyl)-N-[2′-(4″-methylsulfonylcinnamoyloxy)ethyl]-7-(α-2-pyridylbenzylidene)-5-norbornene-2,3-dicarboximide] |  |  |  |  | 88 | yes^h | Emax (rat caudal artery; [4]): 88%
O=C(OCN1C(=O)C2C3C=C(C(O)(c4ccccc4)c4ccccn4)C(C3=C(c3ccccc3)c3ccccn3)C2C1=O)C(c1ccccc1)c1ccccc1 (stereo not drawn) [Compound 17, N-Diphenylacetyloxymethyl-5-(α-hydroxy-α-2-pyridylbenzyl)-7-(α-2-pyridylbenzylidene)-5-norbornene-2,3-dicarboximide] |  |  |  |  | 0 | no^h | Emax (rat caudal artery; [4]): 0%
COC(=O)C(N)CC(=O)OCCN1C(=O)C2C3C=C(C(O)(c4ccccc4)c4ccccn4)C(C3=C(c3ccccc3)c3ccccn3)C2C1=O.O=C(O)C(F)(F)F (stereo not drawn) [Compound 343, 5-(α-Hydroxy-α-2-pyridylbenzyl)-N-[2′-(α-methylaspartoyloxy)ethyl]-7-(α-2-pyridylbenzylidene)-5-norbornene-2,3-dicarboximide trifluoroacetate] |  |  |  |  | 149 | yes^h,i | Vasoconstriction: maximum contractile effect as a % of 90 mM KCl contraction (rat caudal artery; Table 1, compound at 50 μM): 140%; In vivo lethality (oral) (Sprague Dawley rats; 20 mg/Kg): yes^h,i
O=C(CN1C(=O)C2C3C=C(C(O)(c4ccccc4)c4ccccn4)C(C3=C(c3ccccc3)c3ccccn3)C2C1=O)OCC=Cc1ccccc1 (stereo not drawn) [Compound 371, N-Cinnamoxycarbonylmethyl-5-(α-hydroxy-α-2-pyridylbenzyl)-7-(α-2-pyridylbenzylidene)-5-norbornene-2,3-dicarboximide] |  |  |  |  | 0 | no^h | Emax (rat caudal artery; Table 3, read-out: Vasoconstriction: maximum contractile effect as a % of 90 mM KCl contraction): 0%
